# Laboratory results: paper PMC10599482 (Chemical Science, 2023)
# Assay: CD spectroscopy, percent helicity
# Format: physicochemical
# Conditions: 50.0% TFE aqueous solution, 0.1 mg/mL peptide, 20 °C, calculated from [θ]222
smiles,measurement,value
CC[C@H](C)[C@H](NC(=O)[C@H](C)NC(=O)[C@H](CCC(=O)O)NC(=O)[C@H](CCC(=O)O)NC(=O)[C@H](CC(C)C)NC(=O)[C@H](CCCCN)NC(=O)[C@H](CCCCN)NC(=O)[C@H](CCSC)NC(=O)[C@H](CCC(=O)O)NC(=O)[C@H](Cc1ccc(O)cc1)NC(=O)[C@H](CCC(=O)O)NC(=O)[C@H](CC(C)C)NC(=O)[C@H](CC(=O)O)NC(=O)[C@H](CC(C)C)NC(=O)[C@H](Cc1ccccc1)NC(=O)[C@@H](NC(=O)[C@@H](NC(=O)[C@H](CC(N)=O)NC(=O)[C@@H](NC(=O)[C@H](CCC(N)=O)NC(=O)[C@H](CC(=O)O)NC(=O)[C@H](CC(C)C)NC(=O)[C@H](CO)NC(C)=O)[C@@H](C)CC)C(C)C)[C@@H](C)O)C(=O)N[C@@H](CCCCN)C(=O)N[C@@H](CCCCN)C(=O)N[C@@H](CC(C)C)C(=O)N[C@@H](CCC(=O)O)C(=O)N[C@@H](CCC(=O)O)C(=O)N[C@@H](CO)C(=O)N[C@@H](Cc1ccc(O)cc1)C(=O)N[C@H](C(=O)N[C@@H](CC(=O)O)C(=O)N[C@@H](CC(C)C)C(=O)N[C@@H](CCCCN)C(=O)N[C@@H](CCC(=O)O)C(=O)N[C@@H](CC(C)C)C(N)=O)[C@@H](C)CC [EK1],α-Helicity (%),13.6%
